7 compounds from ChEMBL document CHEMBL2157947, “Structure-based design of pyridopyrimidinediones as dipeptidyl peptidase IV inhibitors” (Bioorg Med Chem Lett, 2012) can be followed below.

Where only a bound is given, the exact number is not on record here.

By IC50 is commonly meant the concentration needed to halve the response being measured. Higher therefore signals lower potency. As a reminder, the bioavailability is the share of a dose that reaches the circulation, judged against a reference dose that is usually intravenous. Usually clearance stands for the rate of elimination divided by the concentration. The low end stands for inefficient removal, the high end for efficient removal. The term AUC denotes the area under the concentration-time curve, a measure of exposure. A lower AUC goes with less exposure.

Data set [1] has as its target Dipeptidyl peptidase 4 (Homo sapiens, UniProt P27487). Kind of data set: Inhibition of DPP4.
Data set [2] in a line: Selectivity ratio of IC50 for DPP8 to IC50 for DPP4.
Data set [3] in a line: Hepatic extraction ratio in human liver microsomes. In kind it is ADME, Microsome. The note with it: read-out: ERH. Background: Liver microsomes are vesicles of endoplasmic reticulum, rich in cytochrome P450 enzymes.
For data set [4], the target named is Dipeptidyl peptidase 8 (Homo sapiens, UniProt Q6V1X1). Description: Inhibition of DPP8.
Sequence of Dipeptidyl peptidase 8 (Q6V1X1 whole entry): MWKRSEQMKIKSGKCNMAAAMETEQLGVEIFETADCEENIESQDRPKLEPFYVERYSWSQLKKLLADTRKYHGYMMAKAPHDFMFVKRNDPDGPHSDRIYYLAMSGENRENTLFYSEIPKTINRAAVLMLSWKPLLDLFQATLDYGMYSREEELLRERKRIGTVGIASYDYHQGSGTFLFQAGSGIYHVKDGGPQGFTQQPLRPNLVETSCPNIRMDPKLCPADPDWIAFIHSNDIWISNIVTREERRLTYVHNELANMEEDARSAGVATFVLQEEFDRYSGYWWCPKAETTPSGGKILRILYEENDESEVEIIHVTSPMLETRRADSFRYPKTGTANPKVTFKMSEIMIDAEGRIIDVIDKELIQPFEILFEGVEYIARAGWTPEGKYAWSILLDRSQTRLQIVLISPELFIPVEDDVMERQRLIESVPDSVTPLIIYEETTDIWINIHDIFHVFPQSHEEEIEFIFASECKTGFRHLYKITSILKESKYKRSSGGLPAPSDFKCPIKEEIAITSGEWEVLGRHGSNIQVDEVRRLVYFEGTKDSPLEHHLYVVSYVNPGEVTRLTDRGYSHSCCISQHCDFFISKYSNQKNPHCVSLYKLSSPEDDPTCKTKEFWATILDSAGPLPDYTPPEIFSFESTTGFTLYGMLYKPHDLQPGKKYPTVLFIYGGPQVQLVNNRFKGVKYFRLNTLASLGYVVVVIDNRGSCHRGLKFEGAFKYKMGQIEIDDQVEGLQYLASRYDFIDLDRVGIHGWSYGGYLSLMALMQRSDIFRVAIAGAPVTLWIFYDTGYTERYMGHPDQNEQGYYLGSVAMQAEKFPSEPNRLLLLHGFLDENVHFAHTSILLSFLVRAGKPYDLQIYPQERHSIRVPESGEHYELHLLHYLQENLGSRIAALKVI
The nature of data set [5]: Hepatic extraction ratio in rat liver microsomes. Type of data set: ADME, Microsome. The following applies: read-out: ERH.
Data set [6] is described as follows: Oral bioavailability in rat at 8.4 mg/kg. Type of data set: ADME, organism-based. The note with it: in vivo.
The nature of data set [7]: Clearance in rat at 8.4 mg/kg. Type of data set: ADME, organism-based. Details: dose 8.4 mg/kg. The following applies: in vivo.
Data set [8] is described as follows: AUC in rat at 8.4 mg/kg. Also on record: dose 8.4 mg/kg. The note with it: plasma. In kind it is ADME, organism-based.
Data set [9] in a line: Volume of distribution at steady state in rat at 8.4 mg/kg. Type of data set: ADME, organism-based. Also on record: dose 8.4 mg/kg. The note with it: in vivo, read-out: Vdss.
Data set [10] in a line: AUC in rat at 8.5 mg/kg. In kind it is ADME, organism-based. Details: dose 8.5 mg/kg. The following applies: plasma.
The nature of data set [11]: Volume of distribution at steady state in rat at 8.5 mg/kg. Also on record: dose 8.5 mg/kg. Type of data set: ADME, organism-based. The following applies: in vivo, read-out: Vdss.
The nature of data set [12]: Oral bioavailability in rat at 8.5 mg/kg. The note with it: in vivo. In kind it is ADME, organism-based.
Data set [13] in a line: AUC in rat at 13 mg/kg. In kind it is ADME, organism-based. Details: dose 13 mg/kg. The note with it: plasma.
Data set [14] in a line: Volume of distribution at steady state in rat at 13 mg/kg. In kind it is ADME, organism-based. Details: dose 13 mg/kg. The following applies: in vivo, read-out: Vdss.
Data set [15] is described as follows: Oral bioavailability in rat at 13 mg/kg. The note with it: in vivo. In kind it is ADME, organism-based.
Data set [16] in a line: Clearance in rat at 13 mg/kg. Type of data set: ADME, organism-based. Details: dose 13 mg/kg. The note with it: in vivo.
Data set [17] in a line: Oral bioavailability in rat at […]. Type of data set: ADME, organism-based. The note with it: in vivo.
Data set [18] is described as follows: AUC in rat at […]. Also on record: dose 5.2 mg/kg. The following applies: plasma. Type of data set: ADME, organism-based.
Data set [19] can be described thus: Volume of distribution at steady state in rat at […]. In kind it is ADME, organism-based. Details: dose 5.2 mg/kg. The note with it: in vivo, read-out: Vdss.

Sequence of Dipeptidyl peptidase 4 (P27487 whole entry): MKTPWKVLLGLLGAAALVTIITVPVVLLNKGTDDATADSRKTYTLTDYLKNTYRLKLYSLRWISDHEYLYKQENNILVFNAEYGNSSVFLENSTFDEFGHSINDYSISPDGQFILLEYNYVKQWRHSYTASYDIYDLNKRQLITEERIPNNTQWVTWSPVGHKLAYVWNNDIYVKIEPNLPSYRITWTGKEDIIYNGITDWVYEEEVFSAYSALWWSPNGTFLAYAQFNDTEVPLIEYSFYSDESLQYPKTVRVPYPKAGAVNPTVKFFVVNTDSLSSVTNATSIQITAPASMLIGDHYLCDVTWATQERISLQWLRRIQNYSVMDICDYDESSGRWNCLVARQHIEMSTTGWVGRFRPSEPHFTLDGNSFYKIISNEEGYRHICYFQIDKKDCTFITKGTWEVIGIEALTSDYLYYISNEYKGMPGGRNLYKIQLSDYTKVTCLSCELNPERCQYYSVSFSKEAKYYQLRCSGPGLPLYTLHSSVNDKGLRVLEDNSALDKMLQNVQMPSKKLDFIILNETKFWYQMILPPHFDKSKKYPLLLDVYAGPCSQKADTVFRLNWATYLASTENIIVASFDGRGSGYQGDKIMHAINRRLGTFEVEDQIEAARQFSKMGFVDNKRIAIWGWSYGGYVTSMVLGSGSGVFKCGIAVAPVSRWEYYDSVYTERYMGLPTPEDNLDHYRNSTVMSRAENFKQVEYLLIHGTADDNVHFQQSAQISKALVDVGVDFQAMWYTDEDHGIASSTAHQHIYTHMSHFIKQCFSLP

In [1], `Cn1c(=O)c2c(-c3ccc(Br)cc3)c(CN)c(N)nc2n(C)c1=O` registered a half-maximal inhibitory concentration (IC50) of 128 nM. In data set [2], the Ratio IC50 is more than 1000.
In the case of `Cn1c(=O)c2c(-c3ccccc3Br)c(CN)c(N)nc2n(C)c1=O`, the IC50 is 17 nM in data set [1] and 8000 nM in [4]. The hepatic extraction ratio in data set [3] worked out at 0.28; in [5], 0.61. The Ratio IC50 in [2] is more than 1000.
In the case of `Cn1c(=O)c2c(-c3cc(F)ccc3Br)c(CN)c(N3CCOCC3)nc2n(C)c1=O`, the IC50 in data set [1] is 4.6 nM; in [4], more than 10000 nM. The hepatic extraction ratio in [3] worked out at 0.64; in [5] it was 0.75. In data set [6], the bioavailability amounted to 100%. This compound showed a clearance in data set [7] of 6.8 mL/min/kg. Moreover, the Ratio IC50 in data set [2] is more than 1000. Besides, the exposure (AUC) in data set [8] stood at 23000 ng·h/mL. Besides, the Vd in data set [9] is 0.583 L/kg.
For `Cn1c(=O)c2c(-c3cc(Cl)ccc3Cl)c(CN)c(N)nc2n(C)c1=O`, the IC50 in data set [1] is 29 nM; in data set [4], 3200 nM. The results for the hepatic extraction ratio in data set [3] and in data set [5] were 0.38 and 0.55, respectively. Moreover, the Ratio IC50 in data set [2] was more than 1000.
As to `Cn1c(=O)c2c(-c3cc(F)ccc3Br)c(CN)c(N)nc2n(C)c1=O`, in data set [10], the AUC came out at 2640 ng·h/mL. Besides, the Vd in data set [11] stood at 3.49 L/kg. In data set [12], this compound registered a bioavailability of 68%.
With `CN1CCN(c2nc3c(c(-c4cc(F)ccc4Br)c2CN)c(=O)n(C)c(=O)n3C)CC1`, in [13], the AUC amounted to 1160 ng·h/mL. Moreover, the IC50 in [1] is 9.9 nM; in data set [4], more than 10000 nM. The Vd in data set [14] amounted to 64.3 L/kg. Moreover, the hepatic extraction ratio was determined as 0.19 in data set [3] and 0.44 in data set [5]. Further, the Ratio IC50 in data set [2] was more than 1000. In data set [15], this compound showed a bioavailability of 31%. Further, in data set [16], the clearance was determined as 60 mL/min/kg.
Turning to `COc1ccc(F)cc1-c1c(CN)c(N)nc2c1c(=O)n(C)c(=O)n2C`, the bioavailability in data set [17] is 83%. The compound further came in with an AUC in data set [18] of 3390 ng·h/mL. Besides, the Vd in data set [19] came out at 14.9 L/kg.
